From article PMC12163822, “Synthesis and Pharmacological Characterization of a Novel Cannabinoid Receptor 1 Antagonist” (ACS Omega, 2025)

Target: cannabinoid receptors
Assay: [3H]CP55,940 competition binding in rat brain cortex membrane homogenates
Set-up: species or system Sprague-Dawley rat
Conditions: competition vs 0.5 nM [3H]CP55,940, rat brain cortex membranes, one-site fit; read-out: IC50
Procedure: Sprague–Dawley rats (n = 5) were anesthetized and sacrificed by decapitation. Spleens and brains were then quickly removed by dissection at 4 °C, and in the case of the brain tissue, the cortex was dissected for the preparation of the membrane homogenates. For this procedure, spleen and cortex samples were homogenized using a Teflon-glass grinder (15 up-and-down strokes at 800 rpm) in 30 volumes of homogenization buffer (1 mM EGTA, 3 mM MgCl2, 50 mM Tris–HCl; pH 7.4) supplemented with […], at 4 °C. The obtained homogenates were centrifuged for 5 min at 1500 rpm. Pellets were removed, and supernatants were centrifuged again for 15 min at 14,000 rpm. For washing, the obtained pellets were resuspended in a buffer and centrifuged again, and the supernatant was removed. The resulting aliquots were stored at −80 °C until use.
To stop the reaction, an ice-cold wash buffer (50 mM Tris–HCl and 0.5% BSA, pH 7.4) was added. Then, the membranes were retained by vacuum filtration to a Whatman GF/C glass microfiber filter (Sigma-Aldrich, St. Louis, MO, USA) and the free radioligand was discarded. Filters with the bound radioligand were transferred to vials containing 5 mL of Ultima Gold cocktail (Revvity, Boston, MA, USA) and measured with a Packard Tri-Carb 2200CA liquid scintillation counter (Revvity, Boston, MA, USA).
Data from radioligand affinity assays were analyzed by using nonlinear regression. A comparison of fits was performed for every curve and the preferred model (one site vs two sites) was chosen in each case. Curves were fitted to the pooled data from multiple experiments. For the evaluation of data from autoradiographic assays, the Kruskal–Wallis test followed by Dunn’s post hoc tests for multiple comparisons was performed. For statistical significance, the threshold was set at p = 0.05. The number of replicates or animal sample number used in each case is stated in the figure legends. GraphPad Prism 9 (GraphPad Software) was employed for data analysis and presentation.

SMILES	IC50
CCOC(=O)CC1C(=O)Nc2ccccc2-c2[nH]c3ccccc3c21 (stereo not shown) [UVI3505]	0.00885 ± 0.0146 µM
COc1ccc2[nH]c3c(c2c1)/C(=C/C(=O)O)C(=O)Nc1ccc(C)cc1-3 [UVI3509]	> 10 µM
CCOC(=O)/C=C1\C(=O)Nc2ccc(F)cc2-c2c1c1cc(C)ccc1n2C(=O)OCC [UVI3503]	> 10 µM
CCOC(=O)CC1c2c([nH]c3ccccc23)-c2ccccc2-n2c(C)nnc21 (stereo not shown) [UVI8113]	0.0106 µM
CCOC(=O)/C=C1\C(=O)Nc2ccccc2-c2c1c1ccccc1n2C(=O)OCC [UVI3508]	310 µM
O=C(O)CC1C(=O)Nc2ccccc2-c2[nH]c3ccccc3c21 (stereo not shown) [UVI3504]	5.908 ± 0.00718 µM
O=C(O)/C=C1\C(=O)Nc2ccccc2-c2[nH]c3ccccc3c21 [UVI3506]	7.041 ± 0.018 µM
